The values below come from patent US8134015B2, “Compound inhibiting in vivo phosphorous transport and medicine containing the same” (Kyowa Hakko Kirin Co., Ltd., priority 2003, dated 2012).

pIC50: −log10 of the molar value.

The first assay addresses T1, rat NaPi-2b (Rattus norvegicus, UniProt Q9JJ09).
T1 construct: expressed in transfected cells; host or cells: Xenopus oocytes injected with cRNA
T1 sequence (Q9JJ09 1-695): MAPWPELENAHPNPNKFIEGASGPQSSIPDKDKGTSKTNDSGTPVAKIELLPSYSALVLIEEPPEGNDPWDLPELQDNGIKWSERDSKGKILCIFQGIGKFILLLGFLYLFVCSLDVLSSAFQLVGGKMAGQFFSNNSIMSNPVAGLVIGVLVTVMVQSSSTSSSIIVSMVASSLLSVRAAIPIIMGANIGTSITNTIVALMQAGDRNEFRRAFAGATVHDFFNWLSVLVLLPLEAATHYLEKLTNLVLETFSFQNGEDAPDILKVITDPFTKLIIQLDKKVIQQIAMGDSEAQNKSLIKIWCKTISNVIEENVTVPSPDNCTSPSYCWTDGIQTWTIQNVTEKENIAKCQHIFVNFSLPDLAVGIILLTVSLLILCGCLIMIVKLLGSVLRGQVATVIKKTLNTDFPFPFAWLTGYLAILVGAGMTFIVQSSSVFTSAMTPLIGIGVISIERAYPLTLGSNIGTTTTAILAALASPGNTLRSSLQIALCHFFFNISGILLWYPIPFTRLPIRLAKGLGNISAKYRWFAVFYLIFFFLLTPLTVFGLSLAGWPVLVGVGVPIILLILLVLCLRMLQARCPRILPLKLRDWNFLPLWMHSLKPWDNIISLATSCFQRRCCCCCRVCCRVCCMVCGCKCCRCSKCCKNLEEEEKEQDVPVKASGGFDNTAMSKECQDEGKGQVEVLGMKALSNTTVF
The assay is described as follows: Sodium-dependent phosphate uptake of Xenopus oocytes which expressed NaPi-2b (32P). Type of assay: cell-based. The following applies: Xenopus oocytes expressing rat NaPi-2b, 32P radioactive phosphorus; read-out: IC50 (phosphate uptake inhibitory activity). The method, boiled down:
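Inhibition at 300 μM and 100 μM was read off one inhibition curve of 32P phosphate uptake. Uptake was measured in Xenopus oocytes cultured 2 days after injection of cRNA for cloned rat NaPi-2b.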
Turning to `CCN(CC)CCNCc1cccc(C(=O)Nc2scc(C)c2C(=O)N/N=C/c2ccc(C)c(C)c2)c1` [Compound 581, 3-[(2-Diethylamino-ethylamino)-methyl]-N-[3-(3,4-dimethyl-benzylidene-hydrazinocarbonyl)-4-methyl-thiophen-2-yl]-benzamide], the negative-log IC50 (pIC50) (in general, −log10 of the IC50, conventionally taken in molar units) is more than 5.52.
On the same count and under the same terms, then `O=C(Nc1ccc(Br)cc1C(=O)N/N=C/c1ccc(F)cc1)c1ccco1` [Compound 152, Furan-2-carboxylic acid [4-bromo-2-(4-fluoro-benzylidene-hydrazinocarbonyl)-phenyl]-amide], with 5.83.
With `CCN(CC)CCN(C)Cc1cccc(C(=O)Nc2scc(C)c2C(=O)N/N=C/c2ccc(OC)cc2)c1` [Compound 568, 3-{[(2-Diethylamino-ethyl)-methyl-amino]-methyl}-N-[3-(4-methoxy-benzylidene-hydrazinocarbonyl)-4-methyl-thiophen-2-yl]-benzamide], the pIC50 is 5.36.
For the compound `O=c1c2c3c(sc2nc(-c2cccc(CSc4nc[nH]n4)c2)n1/N=C/c1ccc(Cl)c(C(F)(F)F)c1)CCCC3` [Compound 650, 3-[(4-Chloro-3-trifluoromethyl-benzylidene)-amino]-2-[3-(1H-[1,2,4]triazol-3-ylsulfanylmethyl)-phenyl]-5,6,7,8-tetrahydro-3H-benzo[4,5]thieno[2,3-d]pyrimidin-4-one], the pIC50 is 6.02.
The same measure, in the same setting: in the case of `O=C(Nc1ccc(N2CCCCC2)cc1C(=O)N/N=C/c1ccc(Cl)c(C(F)(F)F)c1)c1cccc(CN2CCC(O)CC2)c1` [Compound 874, N-[2-(4-Chloro-3-trifluoromethyl-benzylidene-hydrazinocarbonyl)-4-piperidin-1-yl-phenyl]-3-(4-hydroxy-piperidin-1-ylmethyl)-benzamide] it was more than 6.52; in that of `O=C(Nc1ccc(Cl)cc1C(=O)N/N=C/c1ccc(F)cc1)c1ccccn1` [Compound 360, Pyridin-2-carboxylic acid [4-chloro-2-(4-fluoro-benzylidene-hydrazinocarbonyl)-phenyl]-amide], 6.20; in that of `COc1ccc(C(=O)Nc2ccccc2C(=O)N/N=C/c2cccs2)cc1OC` [Compound 23, 3,4-Dimethoxy-N-[2-(thiophen-2-ylmethylene-hydrazinocarbonyl)-phenyl]-benzamide], 5.01.
As for `COc1cc(OC)cc(C(=O)Nc2ccc(Br)cc2C(=O)N/N=C/c2cccc(F)c2)c1` [Compound 114, N-[4-Bromo-2-(3-fluoro-benzylidene-hydrazinocarbonyl)-phenyl]-3,5-dimethoxy-benzamide], the pIC50 is 5.59.
Same read-out and setting: then `O=C(Nc1ccc(Br)cc1C(=O)N/N=C/c1ccc(Cl)c(C(F)(F)F)c1)c1ccc(CN2CCN(CCO)CC2)cc1` [Compound 321, N-[4-Bromo-2-(4-chloro-3-trifluoromethyl-benzylidene-hydrazinocarbonyl)-phenyl]-4-[4-(2-hydroxy-ethyl)-piperazin-1-ylmethyl]-benzamide], with 5.58; and `CCN(CC)CCN(Cc1cccc(C(=O)Nc2sc3c(c2C(=O)N/N=C/c2cccc(F)c2)CCCC3)c1)C(C)=O` [Compound 655, 3-{[Acetyl-(2-diethylamino-ethyl)-amino]-methyl}-N-[3-(3-fluoro-benzylidene-hydrazinocarbonyl)-4,5,6,7-tetrahydro-benzo[b]-thiophen-2-yl]-benzamide], with 5.80; and `Cc1ccc(/C=N/NC(=O)c2cc(Cl)ccc2NC(=O)c2cccc(CN3CCC(N4CCCCC4)CC3)c2)cc1` [Compound 371, 3-[1,4′]Bipiperidinyl-1′-ylmethyl-N-[4-chloro-2-(4-methyl-benzylidene-hydrazinocarbonyl)-phenyl]-benzamide], with 5.60.
With `CCN(CC)CCN(C)Cc1cccc(C(=O)Nc2sc3c(c2C(=O)N/N=C/c2ccc(OC)cc2)CCCC3)c1` [Compound 614, 3-{[(2-Diethylamino-ethyl)-methyl-amino]-methyl}-N-[3-(4-methoxy-benzylidene-hydrazinocarbonyl)-4,5,6,7-tetrahydro-benzo-[b]thiophen-2-yl]-benzamide], the pIC50 was 5.48.
Same read-out and setting: then `Cn1cccc1/C=N/NC(=O)c1ccccc1NC(=O)c1ccncc1` [Compound 210, N-[2-(1-Methyl-1H-pyrrol-2-ylmethylene-hydrazinocarbonyl)-phenyl]-isonicotinamide], with 4.46.
Same read-out and setting: then `Cc1ccc(/C=N/NC(=O)c2c(C)csc2NC(=O)c2cccc(CN(CC(C)O)CC(C)O)c2)cc1C` (centres unmarked) [Compound 587, 3-{[Bis-(2-hydroxy-propyl)-amino]-methyl}-N-[3-(3,4-dimethyl-benzylidene-hydrazinocarbonyl)-4-methyl-thiophen-2-yl]-benzamide], with more than 5.52; and `COc1ccc(C(=O)Nc2ccccc2C(=O)N/N=C/c2ccccc2)cc1OC` [Compound 17, N-[2-(Benzylidene-hydrazinocarbonyl)-phenyl]-3,4-dimethoxy-benzamide], with 5.44; and `CN(CCO)Cc1ccc(C(=O)Nc2ccc(Cl)cc2C(=O)N/N=C/c2ccc(F)cc2)cc1` [Compound 413, N-[4-Chloro-2-(4-fluoro-benzylidene-hydrazinocarbonyl)-phenyl]-4-{[(2-hydroxy-ethyl)-methyl-amino]-methyl}-benzamide], with more than 5.52.
Still for that read-out and setting: in the case of `COc1ccc(C(=O)Nc2ccccc2C(=O)N/N=C/c2cc(OC)c(OC)c(OC)c2)cc1OC` [Compound 12, 3,4-Dimethoxy-N-[2-(3,4,5-trimethoxy-benzylidene-hydrazinocarbonyl)-phenyl]-benzamide] it was 5.35; in that of `CCN(CCO)Cc1cccc(C(=O)Nc2ccc(Cl)cc2C(=O)N/N=C/c2ccc(Cl)c(C(F)(F)F)c2)c1` [Compound 427, N-[4-Chloro-2-(4-chloro-3-trifluoromethyl-benzylidene-hydrazinocarbonyl)-phenyl]-3-{[ethyl-(2-hydroxy-ethyl)-amino]-methyl}-benzamide], more than 5.52; in that of `Cc1ccc(/C=N/NC(=O)c2cc(Br)ccc2NC(=O)c2ccc(CNCCCN(C)c3ccccc3)cc2)cc1C` [Compound 757, N-[4-Bromo-2-(3,4-dimethyl-benzylidene-hydrazinocarbonyl)-phenyl]-4-{[3-(methyl-phenyl-amino)-propylamino]-methyl}-benzamide], 4.72.
Regarding `COc1ccc(C(=O)Nc2ccc(Br)cc2C(=O)N/N=C/c2ccc(F)cc2)cc1OC` [Compound 61, N-[4-Bromo-2-(4-fluoro-benzylidene-hydrazinocarbonyl)-phenyl]-3,4-dimethoxy-benzamide], the pIC50 was 6.51.
On the same count and under the same terms, in the case of `COc1ccc(C(=O)Nc2ccc(Br)cc2C(=O)N/N=C(\C)c2cccc(F)c2)cc1OC` [Compound 214, N-{4-Bromo-2-[1-(3-fluoro-phenyl)-ethylidene-hydrazinocarbonyl]-phenyl}-3,4-dimethoxy-benzamide] it was 5.40; in that of `O=C(Nc1ccc(Cl)cc1C(=O)N/N=C/c1ccc(F)cc1)c1cccc(CN2CCC(N3CCCCC3)CC2)c1` [Compound 369, 3-[1,4′]Bipiperidinyl-1′-ylmethyl-N-[4-chloro-2-(4-fluoro-benzylidene-hydrazinocarbonyl)-phenyl]-benzamide], 5.84; in that of `CN(CCCCCCN(C)Cc1cccc(C(=O)Nc2ccc(Cl)cc2C(=O)N/N=C/c2ccc(Cl)c(C(F)(F)F)c2)c1)Cc1cccc(C(=O)Nc2ccc(Cl)cc2C(=O)N/N=C/c2ccc(Cl)c(C(F)(F)F)c2)c1` [Compound 690, N1-[4-Chloro-2-({2-[(E)-1-(4-chloro-3-trifluoromethyl-phenyl)methylidene]hydrazino}carbonyl)phenyl)-3-{[{6-[(3-{[4-chloro-2-({2-[(E)-1-(4-chloro-3-trifluoromethyl-phenyl)methylidene]hydrazino}-carbonyl}anilino}carbonyl}benzyl}(methyl)amino)hexyl)(methyl)amino]-methyl]benzamide], 4.06.

The assay is the same for the next values; noted with them: phosphate uptake, oocytes expressing rat NaPi-2b; 300 μM, determined from inhibition curve.
Turning to `CCSCCNCc1ccc(C(=O)Nc2ccc(Br)cc2C(=O)N/N=C/c2cccc(C)c2)cc1` [Compound 766, N-[4-Bromo-2-(3-methyl-benzylidene-hydrazinocarbonyl)-phenyl]-4-[(2-ethylsulfanyl-ethylamino)-methyl]-benzamide], the inhibition – broadly, the drop in the measured response relative to a control, in per cent – at 300 µM is 81.9%.
For the compound `Cc1ccc(/C=N/NC(=O)c2cc(OCC(O)CN3CCOCC3)ccc2NC(=O)c2cccc(CN(CC(C)O)CC(C)O)c2)cc1C` (centres unmarked) [Compound 953, 3-{[Bis-(2-hydroxy-propyl)-amino]-methyl}-N-[2-(3,4-dimethyl-benzylidene-hydrazinocarbonyl)-4-(2-hydroxy-3-morpholin-4-yl-propoxy)-phenyl]-benzamide], the inhibition at 300 µM was 67.8%.
`CCN(CC)CCN(C)Cc1cccc(C(=O)Nc2c(C)csc2C(=O)N/N=C/c2ccc(OC)cc2)c1` [Compound 712, 3-{[(2-Diethylamino-ethyl)-methyl-amino]-methyl}-N-[2-(4-methoxy-benzylidene-hydrazinocarbonyl)-4-methyl-thiophen-3-yl]-benzamide]: the “Inhibition (%) (300 μM)” value was found to be 48.73%.
